Data published in patent publication US20230270805A1, “A COMPOSITION COMPRISING AN EXTRACT OF ALDER TREE OR THE ISOLATED COMPOUNDS THEREFROM FOR TREATING AND PREVENTING SKELETON MUSCLE-RELATED DISORDER AND THE USE THEREOF” (Sookmyung Women's University Indusutry-Academic Cooperation …, priority 2020, published 2023).

Key:
[1] = tested on: C57/BL6 mice; assay: Weight of muscle mass, epididymal fat and liver in dexamethasone animal model of muscle loss; format: in vivo, mouse; conditions: Dexa + oxymetholone 10 mg/kg oral daily, autopsy at 4 weeks
Method: (§1) Dexamethasone, a synthetic glucocorticoid, was injected subcutaneously into C57/BL6 mouse mice to establish an animal model of muscle loss and following experiment was performed.
(§2) To establish an in vivo model of muscle loss, 6 weeks-old male C57/BL6 mice (Raon Bio, 6 weeks old, weight range: 32-36 g) were acclimated for one-week, and then weighed animals determined to be healthy during the acclimatization period. The mice close to the average weight were selected using a simple random sampling method and were classified into five groups, namely, (a) a control group, (b) a muscle loss control group (treated with dexamethasone 1 mg/kg), (c) test sample group treated with inventive extract 250 mg/kg and dexamethasone, (d) test sample group treated with inventive extract 500 mg/kg and dexamethasone, and (e) positive control treated with oxymetholone (Celltrion Co. Ltd, ATC #A14AA05, 10 mg/kg) and dexamethasone.
(§3) The inventive Extract and oxymetholone were administered once to the mice daily for 4 weeks and dexamethasone was injected subcutaneously for 10 days from 10 days before the end of co-treatment of inventive extract and oxymetholone.
(§4) Both of inventive extract and oxymetholone were forcibly administered orally using zonde for oral administration after holding and fixing the skin of the animal's poll area, and dexamethasone was injected slowly subcutaneously after inserting a syringe into the dorsal skin fold of the animal held on the thumb and index finger, slightly aspirating whether it was injected normally, and confirming that no blood came out.
The mice were anesthetized with anesthetic to prevent the movement of experimental animals and sacrificed to minimize pain to dissect them. All instruments used during the experiment were sterilized and disinfected and their liver and epididymis fat were harvested.
The gastrocnemius muscle and soleus muscle of the mice were separated, washed in saline, drained, and weighed.
After autopsy at 4 weeks after administration, the weight of liver and Epididymis fat was weighed to calculate weight-to-weight to compare the relative differences between the organ's weight in the groups.

[2] = Body weight in dexamethasone animal model of muscle loss; format: in vivo, mouse; conditions: Dexa + oxymetholone 10 mg/kg oral daily
Method: as §1, §2, §3, §4
The body weight of every animal was measured once a week for 4 weeks from the day of inventive extract administration.

[3] = tested on: C57/BL6 mice; assay: Grip strength test in dexamethasone animal model of muscle loss; format: in vivo, mouse; conditions: Dexa + oxymetholone 10 mg/kg oral daily
Method: as §1, §2, §3, §4
The grip strength of mice was determined as follows; after grabbing the animal's tail and placing it on the grid, the front foot and body were pulled at the same speed until the front foot and body were held at the grid with the front paw, and the average value was calculated after three experimental repetitions. The determination was performed on the 14th and 28th days after the administration of test sample.

[4] = tested on: C57/BL6 mice; assay: Treadmill test in dexamethasone animal model of muscle loss; format: in vivo, mouse; conditions: Dexa + oxymetholone 10 mg/kg oral daily
Method: as §1, §2, §3, §4
The determination was performed on the 14th and 28th days after the administration of test sample.

[5] = tested on: MHC; assay: Western blot of MHC expression in differentiating C2C12 myoblasts; format: cell-based, mouse
Method: (§5) Various concentrations of inventive extract (1, 10, 100 ng/ml) were treated to C2C12 cells (mouse myoblast cell line; Cat^#CRL-1771, ATCC) in differentiation medium (2% horse serum-containing DMEM, Cat^#11965-084, Gibco) for 3 days to induce their differentiation.
(§6) For Western blot analysis, about 3×10^4 mouse myoblast cell cells were incubated in 60 mm plates for 24 hours, and each sample was added to the differentiation medium for 3 days to differentiate. The protein extract was obtained from the differentiated cells using by lysis buffer [25 mM Tris-HCl (pH 7.5), 100 mM NaCl, 1% NP-40, 1% sodium deoxycholate, 0.1% sodium dodecyl sulfate (SDS), and protease inhibitor cocktail, Calbiochem, Darmstadt, Germany). The protein extract (25 μg) was performed to SDS-polyacrylamide gel electorphoresis (PAGE) and transferred to polyvinylidene fluoride (PVDF) membranes.
Primary mouse anti-MHC (sc-376157, Santa Cruz) or anti-myoD (sc-32758, Santa Cruz) was conjugated to the blots at 4° C., for 12 hrs and then conjugated with anti-mouse secondary antibody conjugated to Horseradish peroxidase (goat anti-mouse IgG-HRP, sc-2005, SantaCruz) to analyze the amount of MHC protein by chemiluminescence method. Pan-cadherin (Cat #3678, Sigma) was used as a loading control in the experiment.
(§7) Various inventive compounds (10 nM) were treated to C2C12 cells (mouse myoblast cell line; Cat^#CRL-1771, ATCC) in differentiation medium (2% horse serum-containing DMEM, Cat^#11965-084, Gibco) for 3 days to induce their differentiation.
as §6, with “electrophoresis” for “electorphoresis”
(§8) The change of MHC expression caused by inventive compound in myotube cell was determined by immunostaining method using by mouse anti-MHC and anti-mouse IgG2b Alexa-fluor 568 (See FIG. 7) (Chem. Biol. Interact. 2016, 248:60).
(§9) Various concentrations of inventive compound 1 (1, 10 and 100 nM) were treated to C2C12 cells (mouse myoblast cell line; Cat^#CRL-1771, ATCC) in differentiation medium (2% horse serum-containing DMEM, Cat^#11965-084, Gibco) for 3 days to induce their differentiation.

[6] = tested on: p38 MAPK; assay: Western blot of phosphorylated p38 MAPK in differentiated myotubes; format: cell-based, mouse; conditions: 3 days after differentiation
Method: Various concentrations of inventive extract (1, 10, 100 ng/ml) were treated to myoblast cells and the expressed level of p38 MAPK protein in the lysates of differentiated myotubes obtained at 3 days after the differentiation, was determined according to Western blot analysis.
Primary rabbit-anti phosphorylation p38 MAPK (Cat #9212, Cell Signaling Technology) was reacted with anti-rabbit secondary antibody (goat anti-rabbit IgG-HRP, sc-2004, SantaCruz) to determine the express level of phosphorylated p38 MAPK and primary rabbit-anti-p38 MAPK (Cat #9212, Cell Signaling Technology) was used to determine the expressed amount of total p38 MAPK (loading control)
Various concentrations of inventive compound 1 (1, 10, 100 nM) were treated to myoblast cells and the expressed level of p38 MAPK protein in the lysates of differentiated myotubes obtained at 3 days after the differentiation, was determined according to Western blot analysis.

[7] = tested on: myoD; assay: Western blot of myoD expression in differentiating C2C12 myoblasts; format: cell-based, mouse; conditions: 3 days differentiation
Method: Various concentrations of inventive extract (1, 10, 100 ng/ml) were treated to C2C12 cells (mouse myoblast cell line; Ca^#CRL-1771, American Type Culture Collection (ATCC)) and cell lysates obtained from the differentiated cells, were subjected to Western Blot analysis to evaluate the expressed level of MHC and myoD proteins (The result was shown in FIG. 1A). the change of MHC expression caused by inventive extract in myotube cell was determined by immunostaining method using by mouse anti-MHC and anti-mouse IgG2b Alexa-fluor 568 (See FIG. 1B) (Chem. Biol. Interact. 2016, 248:60).
as §5
as §6, with “The protein extract (25 μg) was performed to SDS-polyacrylamide gel electorphoresis (PAGE) and transferred to polyvinylidene fluoride (PVDF) membranes.” left out
In order to investigate the myogenic effect of the inventive compound 1 obtained in Example, various concentrations of inventive compound 1 (1, 10 and 100 nM) were treated to C2C12 cells (mouse myoblast cell line; Cat^#CRL-1771, American Type Culture Collection (ATCC)) and cell lysates obtained from the differentiated cells, were subjected to Western Blot analysis to evaluate the expressed level of MHC and myoD proteins (The result was shown in FIG. 6). The change of MHC expression caused by inventive compound in myotube cell was determined by immunostaining method using by mouse anti-MHC and anti-mouse IgG2b Alexa-fluor 568 (See FIG. 7) (Chem. Biol. Interact. 2016, 248:60). […]

[8] = tested on: C2C12 myotube cells treated with dexamethasone; assay: Immunofluorescence staining of multinucleated MHC-positive myotubes after dexamethasone-induced muscle loss; format: cell-based, mouse; conditions: dexamethasone (12 hours) + compound 10 nM; control group = 1
Method: (§10) After removing respective differentiation medium, the differentiated myoblast cells in the differentiation medium were washed with phosphate buffer solution twice and fixed with 4% paraformaldehyde (0141, BBC Biochemical) for 20 mins. After washing the cells with phosphate buffer solution twice again, the cells were treated with 0.1% tritonX-100 (2315025, Sigma) for 20 mins. After washing the cells with phosphate buffer solution twice again, the cells were blocked with 5% horse serum solution (16050122, Gibco) and mouse anti-MHC (MAB4470, R&D systems) was added thereto to react for 12 hours at 4° C.
(§11) After finishing the reaction, the cells were washed with phosphate buffer solution more than 3 times and then the level of MHC expression was analyzed using by Alexa Flouor 568-conjuagted secondary anti-mouse (A-21144, MicoProbes) and DAPI (D9542, Sigma). The test result of immunofluorescence on MHC-positive myotubes was visualized with red color and the DAPI-labelled nucleus was visualized with blue color.
About 3×10^4 mouse myoblast cell cells (C2C12; CRL-1772 ATCC) were incubated in 60 mm plates for 24 hours, and various inventive compounds (10 nM) were added to the differentiation medium (0273, Gibco) for 3 days to differentiate.

[9] = tested on: C2C12 cells; assay: Immunofluorescence staining (anti-MHC/DAPI) of multinucleated myotubes, myoblast differentiation; format: cell-based, mouse
Method: as §5, §10, §11, §7, §8, §9

[10] = compound 10 nM, 3 days differentiation, control = 1 (Experimental Example 3)
[11] = compound 10 nM, 3 days differentiation (Experimental Example 3)

## C[C@]12C/C(=C/O)C(=O)C[C@@H]1CC[C@@H]1[C@@H]2CC[C@@]2(C)[C@H]1CC[C@]2(C)O [Oxy, oxymetholone]
[1]
  absolute weight, epididymal fat: 0.43 ± 0.09^# gram
  absolute weight, liver: 1.16 ± 0.07 gram
[1]; gastrocnemius
  absolute weight, calf muscle: 0.251 ± 0.016 gram
[1]; soleus
  absolute weight, fluke muscle: 0.023 ± 0.002^d gram
[2]; 0 week
  body weight: 22.26 ± 0.71 gram
[2]; 1 week
  body weight: 22.49 ± 0.72 gram
[2]; 2 weeks
  body weight: 23.25 ± 0.90 gram
[2]; 3 weeks
  body weight: 23.22 ± 0.93 gram
[2]; 4 weeks
  body weight: 23.20 ± 0.78^b gram
[3]; 2 weeks
  grip strength: 1.00 ± 0.06 N
[3]; 4 weeks
  grip strength: 1.25 ± 0.16^a N
[4]; 2 weeks
  motility (treadmill): 774.75 ± 66.11 meter
[4]; 4 weeks
  motility (treadmill): 773.93 ± 39.64 meter

## COc1cc(/C=C/C(=O)OC[C@H](Cc2ccc(O)c(OC)c2)[C@H](COC(=O)/C=C/c2ccc(O)c(OC)c2)Cc2ccc(O)c(OC)c2)ccc1O [Compound 1, (−)-(2R,3R)-1,4-O-diferuloylsecoisolariciresinol]
[5]; [10]
  MHC/pan-cadherin expression (fold): 1.5 fold
[5]; compound 1 at 1 nM, 3 days differentiation (Experimental Example 4)
  MHC/pan-cadherin expression (fold): 1.2 fold
[5]; compound 1 at 10 nM, 3 days differentiation (Experimental Example 4)
  MHC/pan-cadherin expression (fold): 6.0 fold
[5]; compound 1 at 100 nM, 3 days differentiation (Experimental Example 4)
  MHC/pan-cadherin expression (fold): 4.6 fold
[6]; compound 1 at 1 nM
  phosphorylated-p38/p38 expressed amount (fold): 10.6 fold
[6]; compound 1 at 10 nM
  phosphorylated-p38/p38 expressed amount (fold): 14.8 fold
[6]; compound 1 at 100 nM
  phosphorylated-p38/p38 expressed amount (fold): 15.0 fold
[7]; compound 1 at 1 nM
  myoD/pan-cadherin expression (fold): 1.2 fold
[7]; compound 1 at 10 nM
  myoD/pan-cadherin expression (fold): 1.3 fold
[7]; compound 1 at 100 nM
  myoD/pan-cadherin expression (fold): 1.7 fold
[8]
  The number of muscle fibers that are multinucleated with five or more nuclei and expressed with MHC (fold): 0.7 fold
[9]; [11]
  The number of muscle fibers that are multinucleated with five or more nuclei and expressed with MHC (fold): 2.8 fold
[9]; compound 1 at 1 nM (Experimental Example 4)
  The number of muscle fibers that are multinucleated with five or more nuclei and expressed with MHC (fold): 1.5 fold
[9]; compound 1 at 10 nM (Experimental Example 4)
  The number of muscle fibers that are multinucleated with five or more nuclei and expressed with MHC (fold): 9.0 fold
[9]; compound 1 at 100 nM (Experimental Example 4)
  The number of muscle fibers that are multinucleated with five or more nuclei and expressed with MHC (fold): 8.0 fold

## O=C(CCc1ccc(O)c(O)c1)CC(O)CCc1ccc(O)c(O)c1 (stereo not shown) [Compound 4, Hirsutanonol]
[5]; [10]
  MHC/pan-cadherin expression (fold): 1.9 fold
[8]
  The number of muscle fibers that are multinucleated with five or more nuclei and expressed with MHC (fold): 0.7 fold
[9]; [11]
  The number of muscle fibers that are multinucleated with five or more nuclei and expressed with MHC (fold): 3.1 fold
